Results: publication PMC7888603 (PLoS Pathogens, 2021)
“Also recorded” adds a separate entry of the source. Where two headings read alike, the source gives them in different places.

Legend:
[1] = in vitro; conditions: human
[2] = system: pseudotyped WT-EBOV; test: microbe, parasite or virus in culture; assay type: cell-based, Ebola virus
[3] = system: pseudotyped WT-MARV; test: microbe, parasite or virus in culture; assay type: cell-based, Marburg virus; conditions: for IC50: Human immunodeficiency virus 1, A549, read-out: IC50 (µM) (MARV)
[4] = target: EBOV GP; conditions: cited from earlier work
[5] = system: pseudotyped vesicular stomatitis virus (VSV); assay type: cell-based
[6] = system: pseudotyped influenza H5N1; assay type: cell-based
[7] = system: pseudotyped WT-EBOV; test: microbe, parasite or virus in culture; assay type: cell-based, Ebola virus; conditions: Zaire ebolavirus, read-out: EBOV Inhibition (%)
[8] = system: pseudotyped WT-MARV; test: organism not typed; assay type: cell-based, Marburg virus; conditions: read-out: MARV Inhibition (%)
[9] = target: EBOV HR2 peptide ([…]) (Zaire ebolavirus, UniProt Q05320); assay type: binding, Ebola virus; conditions: pH 5.2
[10] = system: lysotracker red accumulation in lysosomes, A549 cells; test: cells; assay type: cell-based, Human; conditions: for IC50: Homo sapiens, A549, read-out: IC50, inhibition of lysotracker red accumulation in lysosomes
[11] = system: A549 cells
[12] = target: RAVN GPΔmucin (Lake Victoria marburgvirus, UniProt Q1PDC7); conditions: 200 µM
[13] = system: Ebola; conditions: cited from earlier work
[14] = system: lysosomes; conditions: cited from earlier work
[15] = Zaire ebolavirus, A549, read-out: IC50 (µM) (EBOV)

Compound: CN1[C@@H]2CC[C@H]1C[C@@H](OC(c1ccccc1)c1ccccc1)C2 [Benztropine]
- CC50 [1]: 52.9 ± 6.1 µM

Compound: CC(C)COCC(CN(Cc1ccccc1)c1ccccc1)N1CCCC1 (stereo not drawn) [Bepridil]
- IC50 [2, 15]: 1.6 ± 0.8 µM
- IC50 [3]: 10 ± 2 µM
- Kd [4]: 290 µM
- CC50 [1]: 34.7 ± 4.6 µM

Compound: CCCCOc1cc(C(=O)NCCN(CC)CC)c2ccccc2n1 [Dibucaine]
- IC50 [2, 15]: 3.2 ± 0.2 µM
- IC50 [3]: 6 ± 2 µM
- CC50 [1]: 67.1 ± 8 µM

Compound: CNCCC(Oc1ccc(C(F)(F)F)cc1)c1ccccc1 (stereo not drawn) [Fluoxetine]
- inhibition of pseudotyped vesicular stomatitis virus (VSV) [5]: no inhibition
- inhibition of pseudotyped influenza H5N1 [6]: no inhibition
- inhibition at 0.625 µM [7]: 6.94%
- inhibition at 1.25 µM [7]: 21.4%
- inhibition at 2.5 µM [7]: 44.8%
- inhibition at 5 µM [7]: 55.7%
- inhibition at 10 µM [7]: 79.2%
- inhibition at 0.625 µM [8]: 35.7%
- inhibition at 1.25 µM [8]: 46.4%
- inhibition at 2.5 µM [8]: 62%
- inhibition at 5 µM [8]: 74.4%
- inhibition at 10 µM [8]: 88.8%
- binding to EBOV HR2 peptide (NOESY) [9]: intermolecular NOEs, highlighted by red arrows, are observed
- CC50 [1]: 28.7 ± 0.1 µM

Compound: CN(C)CCCN1c2ccccc2CCc2ccccc21 [Imipramine]
- IC50 [2, 15]: 2.6 ± 0.1 µM
- IC50 [3]: 6.4 ± 0.6 µM
- Kd [4]: 584 µM
- CC50 [1]: 76.3 ± 7.4 µM

Compound: CC(=O)N[C@@H](CC(C)C)C(=O)N[C@@H](CC(C)C)C(=O)N[C@H](C=O)CCCNC(=N)N [Leupeptin]
- IC50 [2, 15]: 0.35 ± 0.07 µM
- IC50 [3]: 0.6 ± 0.1 µM
- CC50 [1]: > 100 µM

Compound: OCCOc1ccc(/C(=C(/CCCl)c2ccccc2)c2ccccc2)cc1 [Ospemifene]
- IC50 [2, 15]: 19 ± 10 µM
- loss of potency for MARV [3]: 35 fold
- IC50 [3]: 35 ± 3 µM
- lysosome trapping [10]: no trapping at any concentration; also recorded: no effect
- CC50 ([11]; human): 57 µM
- decrease in Tm of MARV (RAVN) GP [12]: 2 °C
- CC50 ([1]; CC50 (µM)): 56 µM

Compound: Fc1ccc([C@@H]2CCNC[C@H]2COc2ccc3c(c2)OCO3)cc1 [Paroxetine]
- IC50 [2, 15]: 0.34 ± 0.05 µM
- IC50 [3]: 3.1 ± 0.1 µM
- Kd [4]: 650 µM
- CC50 [1]: 23.1 ± 6.3 µM

Compound: CN[C@H]1CC[C@@H](c2ccc(Cl)c(Cl)c2)c2ccccc21 [Sertraline]
- CC50 [1]: 22.6 ± 6.2 µM

Compound: CN(C)CCOc1ccc(/C(=C(/CCCl)c2ccccc2)c2ccccc2)cc1 [Toremifene]
- IC50 [2, 15]: 0.021 ± 0.009 µM
- IC50 ([2]; Zaire ebolavirus, A549, read-out: Toremifene IC50 (µM)): 0.01 µM
- Toremifene at 10 µM (% Infection) [3]: 3%
- IC50 [3]: 1.6 ± 0.6 µM
- IC50 [10]: 9.7 µM
- inhibition of pseudotyped vesicular stomatitis virus (VSV) [5]: no inhibition
- inhibition at 0.0312 µM [7]: 5.93%
- inhibition at 0.0625 µM [7]: 21.8%
- inhibition at 0.125 µM [7]: 41.2%
- inhibition at 0.25 µM [7]: 66.6%
- inhibition at 0.5 µM [7]: 88.5%
- inhibition at 0.625 µM [8]: -3.12%
- inhibition at 1.25 µM [8]: -0.5%
- inhibition at 2.5 µM [8]: 23.1%
- inhibition at 5 µM [8]: 71.2%
- inhibition at 10 µM [8]: 99%
- decrease in Tm of MARV (RAVN) GP [12]: ~ 5 °C
- CC50 [1]: 26.9 ± 2.4 µM

Compound: CCN(CC)CCCC(C)Nc1ccnc2cc(Cl)ccc12 (stereo not drawn) [chloroquine]
- IC50 [10]: 3.3 µM

Compound: CNCCCN1c2ccccc2CCc2ccccc21 [desipramine]
- Ebola entry inhibition in screen of FDA approved drugs [13]: not Ebola entry inhibitors
- accumulation in lysosomes [14]: accumulate in lysosomes

Compound: CC(C)NCC(O)COc1cccc2ccccc12 (stereo not drawn) [propranolol]
- Ebola entry inhibition in screen of FDA approved drugs [13]: not Ebola entry inhibitors
- accumulation in lysosomes [14]: accumulate in lysosomes

Compound: CA-074
- IC50 ([2]; read-out: IC50 (µM) (EBOV)): 32 ± 8 µM
- CC50 [11]: > 100 µM
